Laboratory results from PMC12582985, “Preparation and characterization of renal cell peptides from fetal rats for their antitumor activity” (FEBS Open Bio, 2025).

Assays:
SGC‐7901 cells = assay: CCK‐8 cell viability assay, SGC‐7901; format: cell-based, human; settings: CCK‐8, 48 h, triplicate; peptides 5–45 μg·mL^−1; 5‐FU positive control 0.1–5 mM; vs negative control
From the text: (§1) Human breast cancer MCF‐7 (RRID:CVCL_0031), human lung cancer A549 (RRID:CVCL_0023), human colon cancer HCT‐116 (RRID:CVCL_0291), human cervical cancer Hela (RRID:CVCL_0030), human hepatoma HepG2 (RRID:CVCL_0027), human gastric cancer SGC‐7901 (RRID:CVCL_0520) and human non‐tumor mamma gland epithelial MCF‐10A (RRID:CVCL_0598) and transformed human liver epithelial‐2 (THLE‐2) (RRID:CVCL_3803) cells were obtained from Shanghai Donghuan Biotechnology (Shanghai, China). All cell lines had been authenticated in the past 3 years and again within 4 months after completion of the experiments. All cell lines had been tested for mycoplasma contamination frequently. Their identities were characterized by short tandem repeat analysis. All of these cell lines were cultured in high glucose Dulbecco's modified Eagle's medium supplemented by 10% fetal bovine serum, 100 units·mL^−1 penicillin and 100 μg·mL^−1 streptomycin (complete culture medium).
(§2) MCF‐7 cells (1 × 10^4 cells per well) were treated in triplicate with different doses of each type of RC extract in 96‐well plates for varying time periods. The negative control cells were treated with the diluent of physiological saline, whereas positive control cells were treated with different concentrations (0.1–5 mM) of 5‐fluorouracil (5‐FU) (Leica, Wetzlar, Germany). During the last hour of culture, each well of cells was treated with 10 μL of CCK‐8 solution. The absorbance of the supernatants of individual wells was measured at 450 nm using a microplate reader. Similarly, the effect of different synthesized RCPs (5–45 μg·mL^−1) on the viability of different types of human cancer cells was tested with CCK‐8 assays using the diluent of physiological saline containing the same concentration of dimethylsulfoxide as a negative control and the same concentrations of 5‐FU as the positive controls. Ten RCPs with a predicted strong bioactivity were synthesized by GenScript ([…]) and their purity, sequences and solubility are shown in Table 1. […] The formula used to calculate the cytotoxicity rate of each concentration of RCP was: Cytotoxicity rate (%) = (absorbance value of the control group − absorbance value of the experimental group)/absorbance value of the control group × 100%. In addition, MCF‐7 cells were treated with each type of RCP at 45 μg·mL^−1 for 12–72 h and the dynamic impact of RCP treatment on the viability of MCF‐7 cells was determined every 12 h using CCK‐8 assays.
(§3) Data are expressed as the mean ± SEM. The data distribution was analyzed by Shapiro–Wilk test. The IC50 values of each peptide for individual cell lines were determined using the PRISM, version 8 (GraphPad Software Inc.). Briefly, all dose–response data were converted into […], which were automatically analyzed by PRISM for non‐linear regression to determine and report the IC50 and its SD for each peptide in a specific cell line. The difference among groups was analyzed by analysis of variance and post‐hoc Tukey's tests and the comparison between groups was performed using Student's t‐test and PRISM, version 8 (GraphPad Software Inc.). P < 0.05 was considered statistically significant.

MCF‐10A cells = assay: CCK‐8 cell viability assay, non‐tumor MCF‐10A; format: cell-based, human; settings: CCK‐8, 48 h, triplicate; peptides 5–45 μg·mL^−1; 5‐FU positive control 0.1–5 mM; vs negative control
From the text: as §1, §2, §3

[1] = tested on: cancer cells (MCF‐7, A549, HCT‐116, Hela, HepG2, SGC‐7901) vs non‐tumor MCF‐10A and THLE‐2 cells; assay: CCK‐8 cytotoxicity, preference for cancer cells over non‐tumor cells; format: cell-based, human; set-up: cytotoxicity against non‐tumor MCF‐10A and THLE‐2 cells compared with tumor cell lines: dose or concentration left out as unconfirmed; settings: for preference of cytotoxicity for cancer cells over non‐tumor cells: 5–45 μg·mL^−1, 48 h, CCK‐8
From the text: as §1, §2, §3

A549 cells = assay: CCK‐8 cell viability assay, A549; format: cell-based, human; settings: CCK‐8, 48 h, triplicate; peptides 5–45 μg·mL^−1; 5‐FU positive control 0.1–5 mM; vs negative control
From the text: as §1, §2, §3

Hela cells = assay: CCK‐8 cell viability assay, Hela; format: cell-based, human; settings: CCK‐8, 48 h, triplicate; peptides 5–45 μg·mL^−1; 5‐FU positive control 0.1–5 mM; vs negative control
From the text: as §1, §2, §3

HepG2 cells = assay: CCK‐8 cell viability assay, HepG2; format: cell-based, human; settings: CCK‐8, 48 h, triplicate; peptides 5–45 μg·mL^−1; 5‐FU positive control 0.1–5 mM; vs negative control
From the text: as §1, §2, §3

HCT‐116 cells = assay: CCK‐8 cell viability assay, HCT‐116; format: cell-based, human; settings: CCK‐8, 48 h, triplicate; peptides 5–45 μg·mL^−1; 5‐FU positive control 0.1–5 mM; vs negative control
From the text: as §1, §2, §3

[2] = Solubility of the synthesized peptides; format: physicochemical; settings: for Solubility: solvent given for the synthesized peptide (GenScript)
THLE‐2 cells = assay: CCK‐8 cell viability assay, non‐tumor THLE‐2; format: cell-based, human; settings: CCK‐8, 48 h, triplicate; peptides 5–45 μg·mL^−1; 5‐FU positive control 0.1–5 mM; vs negative control
From the text: as §1, §2, §3

MCF‐7 cells = assay: CCK‐8 cell viability assay, MCF‐7; format: cell-based, human; settings: for viability of MCF‐7 cells: CCK‐8, 48 h, triplicate, peptides 5–45 μg·mL^−1, 5‐FU positive control 0.1–5 mM, vs negative control
From the text: as §1, §2, §3

Solubility [2]	aqueous solubility ([2]; in words)	Sequence	viability of SGC‐7901 cells (SGC‐7901 cells)	viability of non‐tumor MCF‐10A cells (MCF‐10A cells)	preference of cytotoxicity for cancer cells over non‐tumor cells [1]	viability of A549 cells (A549 cells)	viability of Hela cells (Hela cells)	viability of HepG2 cells (HepG2 cells)	viability of HCT‐116 cells (HCT‐116 cells)	viability of non‐tumor THLE‐2 cells (THLE‐2 cells)	viability of MCF‐7 cells (MCF‐7 cells)	cytotoxicity against non‐tumor MCF‐10A and THLE‐2 cells compared with tumor cell lines ([1]; 48 h, P < 0.05 or P < 0.01)	dynamic cytotoxicity against MCF‐7 cells (MCF‐7 cells; 45 μg·mL^−1, 12–72 h, CCK‐8 every 12 h, maintained at highest levels to 72 h)
0.1% Dimethylsulfoxide		RFFESFGDL [RCP‐7, synthesized 9‐mer renal cell peptide from GLOBIN domain‐containing protein, protamex‐digested]	decreased the viability	decreased the viability	did not preferably decrease the viability of tumor cells	decreased the viability	decreased the viability	decreased the viability	decreased the viability	decreased the viability	decreased the viability		
Water, pH 7.0		SSGCPPLPPRRGAPAGWLSH [RCP‐2, synthesized 20‐mer renal cell peptide from Brain‐derived neurotrophic factor, trypsin digested]	decreased the viability	decreased the viability	did not preferably decrease the viability of tumor cells	decreased the viability	decreased the viability	decreased the viability	decreased the viability	decreased the viability	decreased the viability		
0.1% Dimethylsulfoxide	low aqueous solubility	VCMRVCRTWSRWCYDKRLWP [RCP‐5, synthesized 20‐mer renal cell peptide from F‐box and leucine‐rich repeat protein 19, trypsin digested]	significantly decreased the viability	only treatment with the highest doses of them slightly reduced the viability	potent cytotoxicity preferably against cancer cells	significantly decreased the viability	significantly decreased the viability	significantly decreased the viability	significantly decreased the viability	only treatment with the highest doses of them slightly reduced the viability	significantly decreased the viability	statistically lower than tumor cell lines	increased with time from 12 h post treatment to 48 h
